Measured values as given in patent US8465939B2, “Aging-related circulating particle-associated lipoprotein B oxidase (apoBNOX) and inhibitors thereof” (Nox Technologies, Inc., priority 2010, dated 2013).
“Also recorded” adds a separate entry of the source.

What was measured:
[1] = test system: arNOX; conditions: cited from earlier work
[2] = test system: apoBNOX; experiment: superoxide dismutase-resistant apoBNOX activity by ferricytochrome c reduction; type: biochemical; conditions: for inhibition of apoBNOX: apoBNOX associated with lipoprotein particles
Protocol: Reduction of ferricytochrome c by superoxide was employed as the measure of superoxide dismutase-resistant apoBNOX activity (Mayo, L. A. and Curnutte, J., 1990, Meth. Enzyme. 186: 567-575; Butler, J. et al., 1982, J. Biol. Chem. 257: 10747-10750). The assay consists of 150 μl buffy coats in PBSG buffer (8.06 g NaCl, 0.2 g KCl, 0.18 g Na2HPO4, 0.13 g CaCl2, 0.1 MgCl2, 1.35 g glucose dissolved in 1000 ml deionized water, adjusted to pH 7.4, filtered and stored at 4° C.). Rates were determined using an SLM Aminco DW-2000 spectrophotometer (Milton Roy, Rochester, N.Y.) in the dual wave length mode of operation with continuous measurements over 1 min every 1.5 min. After 45 min, test compounds were added and the reaction was continued for an additional 45 min. After 45 min, a millimolar extinction coefficient of […] was used for reduced ferricytochrome c.
arNOX activity was assayed from measurements of superoxide production based on a standard method where reduction of ferricytochrome c was monitored from the increase in absorbance at 550 nm with reference at 540 nm (Butler et al., 1982). As a further check for the specificity of the apoBNOX activity, 60 units of superoxide dismutase (SOD) were added near the end of the assay to ascertain that the rate returned to base line. Rates were determined over 1 min at intervals of 1.5 min using a SLM Aminco DW 2000 spectrophotometer (Milton Roy, Rochester, N.Y.) in the dual wavelength mode of operation. An extinction coefficient of 19.1 mM^−1 cm^−1 was used for reduced ferricytochrome c.

[3] = molecular target: T1, recombinant arNOX SF2 (Homo sapiens, UniProt Q99805, F637E); experiment: Lipid oxidation catalyzed by H2O2 formed from recombinant arNOX-generated superoxide (SF2); type: biochemical; conditions: SF2 + lecithin + SOD + inhibitor, incubated 2 h; without inhibitor 0.12, without SOD 0.06
T1 construct: made in house; host or cells: Escherichia coli BL21 (DE3), pET11a
From the text: FIG. 4 illustrates the role of apoBNOX in the oxidation of the apoB protein associated with low density lipoprotein particles and the recognition of the oxidized LDL by macrophages, resulting in the formation of foam cells leading to fatty streaks and atherogenic plaques. In this scheme, the apoBNOX binds selectively to lipoprotein particle-associated apoB and withdraws electrons to form superoxide. The superoxide thus generated is converted to hydrogen peroxide by the action of superoxide dismutase. The hydrogen peroxide thus generated attacks lipids (particularly phosphatidylcholine) of the low density lipoprotein particles to form reactive lipid peroxides that then attack key lysine residues in the apoB. Evidence that superoxide generated by arNOX when converted to hydrogen peroxide is capable of oxidizing phosphatidylcholine is given by the data of Table 2.

[4] = Hydrophilicity / solubility; type: physicochemical
From the text: (§1) This last characteristic might be problematic if hydroxytyrosol or tyrosol are pretended to be used in fat-based food products or supplements. Oxidation of hydroxytyrosol and tyrosol clearly affect the stability and preservation of both compounds. The hydroxytyrosol and tyrosol derivatives presented in this invention avoid these two problems. The hydroxyl groups on these derivatives are protected from oxidation by preparing hydroxytyrosol or tyrosol fatty acid esters. When compared to hydroxytyrosol and tyrosol, the hydroxytyrosol and tyrosol fatty acid esters are much more resistant against oxidation. At the same time, depending on the length of the fatty acid chain of the fatty acid esters, their solubility in fat-based food products will be increased. Hydroxytyrosol or tyrosol esters with a wide range of solubilities can be prepared, from totally water-soluble hydroxytyrosol or tyrosol derivatives when acetic acid is used in the formation of the ester to totally oil-soluble hydroxytyrosol or tyrosol derivatives when oleic acid is used in the formation of the ester. The hydroxytyrosol and tyrosol derivatives are hydrolyse in the intestinal tract of rats to their two components, hydroxytyrosol or tyrosol and the fatty acid. […] This implies that, after their hydrolysis, mentioned fatty acid esters can act as antioxidants to reduce or ameliorate diseases with an oxidative stress origin.

[5] = Hydrolysis and absorption in rats; type: in vivo
From the text: as §1

[6] = Sensitivity to oxidation; type: physicochemical
From the text: as §1

## COC1=C(OC)C(=O)C(C/C=C(\C)CC/C=C(\C)CC/C=C(\C)CC/C=C(\C)CC/C=C(\C)CC/C=C(\C)CC/C=C(\C)CCC=C(C)C)=C(C)C1=O [CoQ8]
[1]
  inhibition of arNOX activity of aging cells: inhibited
[2]
  inhibition of apoBNOX: relatively ineffective

## COC1=C(OC)C(=O)C(C/C=C(\C)CC/C=C(\C)CC/C=C(\C)CC/C=C(\C)CC/C=C(\C)CC/C=C(\C)CC/C=C(\C)CC/C=C(\C)CCC=C(C)C)=C(C)C1=O [CoQ9]
[1]
  inhibition of arNOX activity of aging cells: inhibited
[2]
  inhibition of apoBNOX: relatively ineffective

## COC1=C(OC)C(=O)C(C/C=C(\C)CC/C=C(\C)CC/C=C(\C)CC/C=C(\C)CC/C=C(\C)CC/C=C(\C)CC/C=C(\C)CC/C=C(\C)CC/C=C(\C)CCC=C(C)C)=C(C)C1=O [CoQ, coenzyme Q10]
[1]
  inhibition of arNOX activity of aging cells: inhibited
[3]
  Lipid oxidation, Relative units: 0.06 cm
[2]
  inhibition of apoBNOX: resist inhibition
[2]; listed as CoQ10
  inhibition of apoBNOX: relatively ineffective

## OCCc1ccc(O)c(O)c1 [Hydroxytyrosol, hydroxytyrosol]
[4]
  hydrophilicity / solubility: hydrophilic
[5]; rats, after hydrolysis of the esters, detected in plasma and cerebrospinal fluid
  absorption: rapidly absorbed

## OCCc1ccc(O)cc1 [Tyrosol, 4-hydroxyphenethyl alcohol]
[4]
  hydrophilicity / solubility: hydrophilic
[6]
  sensitivity to oxidation: sensitive to oxidation
[2]; 100 μM tyrosol
  apoBNOX activity, % inhibition: 70%
[5]; rat, in vivo
  absorption: rapidly absorbed

## O=c1cc(-c2ccc(O)cc2)oc2cc(O)cc(O)c12 [apigenin]
[2]
  inhibition of apoBNOX: resist inhibition

## superoxide dismutase
[2]
  inhibition of apoBNOX: resist inhibition; also recorded: resistant to inhibition
